# Source: article PMC5053523, “In Vitro Antibacterial Activity of Rhodanine Derivatives against Pathogenic Clinical Isolates” (PLoS ONE, 2016)
# Where two headings read alike, the source gives them in different places.
# Columns and labels:
# [1] = system: vancomycin resistant enterococci (VRE) E. faecium; assay: Broth microdilution MIC/MBC, VRE E. faecium; type: cell-based; settings: for MIC: read-out: MIC
# [2] = system: methicillin-resistant Staphylococcus aureus (MRSA); assay: Broth microdilution MIC/MBC, MRSA; type: cell-based
# [3] = system: B. cereus; assay: Broth microdilution MIC/MBC, B. cereus; type: cell-based; settings: Bacillus cereus; for MBC: read-out: MBC; for MIC: read-out: MIC
# Source text: The broth microdilution technique was used, followed by subculturing on agar plates that were rhodanine—free.
# [4] = system: Bacillus Strains; assay: Broth microdilution MIC50/MIC90 and MIC range, Bacillus strains panel; type: cell-based, Bacillus spp.; settings: 10 Bacillus strains
# Source text: The broth microdilution technique was used, followed by subculturing on agar plates that were rhodanine—free. […] The MICs reported represent the lowest concentration of each compound necessary to inhibit bacterial growth and the MBCs represent the lowest concentration required to reduce the initial bacterial inoculum by ≥ 99.9%.
# [5] = system: Mycobacterium smegmatis; assay: Broth microdilution MIC/MBC, Mycobacterium smegmatis; type: cell-based; settings: Mycolicibacterium smegmatis, ATCC14468, M. Smegmatis ATCC 14468
# [6] = system: P. aeruginosa; assay: Broth microdilution MIC, P. aeruginosa; type: cell-based; settings: Pseudomonas aeruginosa
# [7] = system: K. pneumoniae; assay: Broth microdilution MIC, K. pneumoniae; type: cell-based
# [8] = system: Candida albicans; assay: MIC against Candida albicans; type: cell-based; settings: table prints none, read-out: MIC
# [9] = system: Acinetobacter baumannii; assay: MIC with/without sub-MIC colistin, Acinetobacter baumannii; type: cell-based
# Procedure, shortened: (§1)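 Sub-MIC colistin or PMBN added to broth MIC tests of rhodanines and reference antibiotics against Gram-negative strains; AcrAB efflux-deficient E. coli SM1411ΔacrAB also tested.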
# [10] = system: Escherichia coli O157:H7; assay: MIC with/without sub-MIC colistin, Escherichia coli O157:H7; type: cell-based
# Procedure, shortened: as §1
# [11] = system: Salmonella Typhimurium; assay: MIC with/without sub-MIC colistin, Salmonella Typhimurium; type: cell-based
# Procedure, shortened: as §1
# [12] = system: Klebsiella pneumoniae; assay: MIC with/without sub-MIC colistin, Klebsiella pneumoniae; type: cell-based
# Procedure, shortened: as §1
# [13] = system: Pseudomonas aeruginosa; assay: MIC with/without sub-MIC colistin, Pseudomonas aeruginosa; type: cell-based
# Procedure, shortened: as §1
# [14] = system: Escherichia coli O157:H7; assay: MIC with/without PMBN, Escherichia coli O157:H7; type: cell-based
# Procedure, shortened: as §1
# [15] = system: Pseudomonas aeruginosa; assay: MIC with/without PMBN, Pseudomonas aeruginosa; type: cell-based
# Procedure, shortened: as §1
# [16] = system: Escherichia coli Δ acrAB; assay: MIC against E. coli 1411 and AcrAB efflux pump deficient E. coli SM1411Δ acrAB; type: cell-based
# Procedure, shortened: as §1
# [17] = E. faecium HM 968 Strain ERV102
# [18] = E. faecium NR31914 Strain E0120
# [19] = E. faecium Patient #1–1 NR-31903
# [20] = NRS201, B. cereus NRS 201 NR-2488
smiles,measurement,setting,value
O=C(O)[C@H](Cc1ccccc1)N1C(=O)/C(=C/c2cccc(OC/C=C/c3ccc(Cl)c(Cl)c3)c2)SC1=S [Rh 6],MBC,[1]; E. faecium E417 HM-965,> 64 µM
same,MIC,[1]; E. faecium E417 HM-965,4 µM
same,MBC,[1]; E. faecium E1071 NR-28978,> 64 µM
same,MIC,[1]; E. faecium E1071 NR-28978,8 µM
same,MBC,[1]; [17],> 64 µM
same,MIC,[1]; [17],8 µM
same,MBC,[1]; [18],64 µM
same,MIC,[1]; [18],8 µM
same,MBC,[1]; [19],> 64 µM
same,MIC,[1]; [19],4 µM
same,MIC50,[2]; 11 MRSA strains,4 µM
same,MIC90,[2]; 11 MRSA strains,8 µM
same,MBC,[2]; MRSA NRS 1,8 µM
same,MIC,[2]; MRSA NRS 1,8 µM
same,MBC,[2]; MRSA NRS 19,8 µM
same,MIC,[2]; MRSA NRS 19,8 µM
same,MBC,[2]; MRSA NRS 37,16 µM
same,MIC,[2]; MRSA NRS 37,8 µM
same,MBC,[2]; MRSA NRS 107,8 µM
same,MIC,[2]; MRSA NRS 107,8 µM
same,MBC,[2]; MRSA NRS 119,4 µM
same,MIC,[2]; MRSA NRS 119,4 µM
same,MBC,[2]; MRSA NRS 382,16 µM
same,MIC,[2]; MRSA NRS 382,4 µM
same,MBC,[2]; MRSA NRS 383,8 µM
same,MIC,[2]; MRSA NRS 383,4 µM
same,MBC,[2]; MRSA NRS 384,4 µM
same,MIC,[2]; MRSA NRS 384,4 µM
same,MBC,[2]; MRSA NRS 385,4 µM
same,MIC,[2]; MRSA NRS 385,4 µM
same,MBC,[2]; MRSA NRS 386,32 µM
same,MIC,[2]; MRSA NRS 386,4 µM
same,MBC,[2]; MRSA NRS 387,8 µM
same,MIC,[2]; MRSA NRS 387,4 µM
same,MBC,[3]; B. cereus BAG1O-2 NR-28582,4 µM
same,MIC,[3]; B. cereus BAG1O-2 NR-28582,4 µM
same,MBC,[3]; B. cereus BAG1X1-1 NR-28575,4 µM
same,MIC,[3]; B. cereus BAG1X1-1 NR-28575,4 µM
same,MBC,[3]; B. cereus BAG1X2-1 NR-28578,4 µM
same,MIC,[3]; B. cereus BAG1X2-1 NR-28578,4 µM
same,MBC,[3]; B. cereus G9241 NR-9564,4 µM
same,MIC,[3]; B. cereus G9241 NR-9564,4 µM
same,MBC,[3]; B. cereus VD014 NR-22141,4 µM
same,MIC,[3]; B. cereus VD014 NR-22141,4 µM
same,MBC,[3]; B. cereus VD115 NR-22148,4 µM
same,MIC,[3]; B. cereus VD115 NR-22148,4 µM
same,MBC,[3]; B. cereus VD148 NR-22150,4 µM
same,MIC,[3]; B. cereus VD148 NR-22150,4 µM
same,MBC,[3]; [20],4 µM
same,MIC,[3]; [20],4 µM
same,MIC50,[4],4 µM
same,MIC90,[4],4 µM
same,MBC,[5]; read-out: MBC,32 µM
same,MIC,[5]; read-out: MIC,16 µM
same,MIC,[6]; ATCC9721,> 128 µM
same,MIC,[6]; ATCC15442,> 128 µM
same,MIC,[7]; K. pneumoniae NR-15417,>128 µM
same,MIC,[7]; Klebsiella pneumoniae,> 128 µM
same,MIC,"[8]; ATCC10231, C. albicans ATCC 10231, unit from abstract",> 64 µM
same,MIC,"[8]; C. albicans NR 29434, unit from abstract",> 64 µM
same,MIC,"[8]; C. albicans NR 29435, unit from abstract",> 64 µM
same,MIC,"[8]; C. albicans NR29437, unit from abstract",> 64 µM
same,MIC,"[8]; C. albicans NR29438, unit from abstract",> 64 µM
same,MIC,"[8]; C. albicans NR 29446, unit from abstract",> 64 µM
same,MIC,"[8]; C. albicans NR 29448, unit from abstract",> 64 µM
same,MIC,"[8]; C. albicans NR 29449, unit from abstract",> 64 µM
same,MIC,"[8]; C. albicans NR 29453, unit from abstract",> 64 µM
same,MIC,"[8]; C. albicans NR 294436, unit from abstract",> 64 µM
same,MIC,"[9]; Acinetobacter baumannii ATCC BAA747, colistin (+) […], read-out: MIC",>64 µM
same,MIC,"[9]; Acinetobacter baumannii ATCC BAA19606, colistin (+) […], read-out: MIC",>64 µM
same,MIC,"[9]; Acinetobacter baumannii, ATCCBAA747",> 128 µM
same,MIC,"[9]; Acinetobacter baumannii, ATCCBAA19606",> 128 µM
same,MIC,"[10]; Escherichia coli O157:H7 ATCC 35150, colistin (+) […], read-out: MIC",>64 µM
same,MIC,"[10]; Escherichia coli O157:H7 ATCC 700728, colistin (+) […], read-out: MIC",>64 µM
same,MIC,"[10]; Escherichia coli, ATCC35150",> 128 µM
same,MIC,"[10]; Escherichia coli, ATCC700728",> 128 µM
same,MIC,"[11]; Salmonella Typhimurium ATCC 700720, colistin (+) […], read-out: MIC",>64 µM
same,MIC,"[11]; Salmonella enterica, ATCC 700720 / TYPHIMURIUM",> 128 µM
same,MIC,"[12]; Klebsiella pneumoniae ATCC BAA 2146, colistin (+) […]",>64 µM
same,MIC,"[12]; Klebsiella pneumoniae, BAA2146",> 128 µM
same,MIC,"[13]; Pseudomonas aeruginosa ATCC 921, colistin (+) […], read-out: MIC",>64 µM
same,MIC,"[13]; Pseudomonas aeruginosa, ATCC921",> 128 µM
same,MIC,"[14]; Escherichia coli O157:H7 ATCC 35150, PMBN (+) 4 μg/mL, read-out: MIC",8 µM
same,MIC,"[14]; Escherichia coli O157:H7 ATCC 700728, PMBN (+) 4 μg/mL, read-out: MIC",>64 µM
same,MIC,"[14]; Escherichia coli, ATCC35150",> 256 µM
same,MIC,"[14]; Escherichia coli, ATCC700728",> 128 µM
same,MIC,"[15]; Pseudomonas aeruginosa ATCC 9721, PMBN (+) 4 μg/mL, read-out: MIC",>64 µM
same,MIC,"[15]; Pseudomonas aeruginosa, ATCC9721",> 128 µM
same,MIC,[16]; E.coli 1411,> 64 µM
same,MIC,"[16]; E.coli 1411 SM (Δ acrAB, AcrAB efflux pump deficient)",> 64 µM
